Reference: ChEMBL document CHEMBL5518249, “Structure-Guided Discovery and Preclinical Assessment of Novel (Thiophen-3-yl)aminopyrimidine Derivatives as Potent ERK1/2 Inhibitors” (J Med Chem, 2024)

How the values were obtained:
MDA-MB-231 [1] = experiment: cells; details: Homo sapiens, MDA-MB-231, 24 h
Description: Antiproliferative activity against human MDA-MB-231 cells assessed as cell viability incubated for 24 hrs by methyl thiazolyl tetrazolium (MTT) assay

RKO [2] = experiment: cells; details: Homo sapiens, 24 h
Description: Antiproliferative activity against human RKO cells assessed as cell viability incubated for 24 hrs by methyl thiazolyl tetrazolium (MTT) assay

[3] = molecular target: Mitogen-activated protein kinase 3 (Homo sapiens, UniProt P27361)
Description: Inhibition of ERK1 (unknown origin) assessed as luminescence in presence of ATP incubated for 90 mins by ADP-Glo kinase assay

RKO [4] = experiment: animal or person; type: functional, Homo sapiens; details: Mus musculus, po, 360 h, route ig, time 15 day, read-out: TGI
Description: In vivo antitumor activity against human RKO cells xenografted in BALB/c mouse model assessed as tumor growth inhibition at 50 mg/kg, IG once daily for 15 days relative to control

MDA-MB-231 [5] = experiment: animal or person; type: functional, Homo sapiens; details: Mus musculus, MDA-MB-231, po, 360 h, route ig, time 15 day, read-out: TGI
Description: In vivo antitumor activity against human MDA-MB-231 cells xenografted in BALB/c mouse model assessed as tumor growth inhibition at 50 mg/kg, IG once daily for 15 days relative to control

Chain of Mitogen-activated protein kinase 3 (P27361 whole entry): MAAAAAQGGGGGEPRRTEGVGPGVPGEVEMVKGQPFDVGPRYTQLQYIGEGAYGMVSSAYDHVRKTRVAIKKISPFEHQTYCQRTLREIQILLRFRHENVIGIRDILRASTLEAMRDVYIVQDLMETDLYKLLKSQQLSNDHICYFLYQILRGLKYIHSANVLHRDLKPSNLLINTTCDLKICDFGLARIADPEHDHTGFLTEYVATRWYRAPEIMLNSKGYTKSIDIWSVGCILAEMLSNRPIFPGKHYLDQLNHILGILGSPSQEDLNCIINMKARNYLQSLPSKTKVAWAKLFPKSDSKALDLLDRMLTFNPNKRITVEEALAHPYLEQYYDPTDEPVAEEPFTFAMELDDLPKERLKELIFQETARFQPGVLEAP

Row | Compound | IC50 (MDA-MB-231 [1]) [µM] | IC50 (RKO [2]) [µM] | IC50 [3] [µM] | inhibition in vivo at 50 mg/kg (RKO [4]) [%] | inhibition in vivo at 50 mg/kg (MDA-MB-231 [5]) [%]
1 | Cn1cc(Nc2ncc(Cl)c(-c3csc(C(=O)NCc4ccc(F)c(Cl)c4)c3)n2)cn1 | 36.6 | 20.2 | – | – | –
2 | COc1cccc(CNC(=O)c2cc(-c3nc(Nc4ccnn4C)ncc3Cl)cs2)c1 | 29.4 | 33.4 | – | – | –
3 | Cn1nccc1Nc1ncc(Cl)c(-c2csc(C(=O)NCc3ccc(C(F)(F)F)cc3)c2)n1 | 39.4 | 41.2 | – | – | –
4 | Cn1nccc1Nc1ncc(Cl)c(-c2csc(C(=O)NCc3ccc(Cl)c(Cl)c3)c2)n1 | 12.4 | 10.2 | – | – | –
5 | Cn1nccc1Nc1ncc(Cl)c(-c2csc(C(=O)NCc3ccc(Cl)c(F)c3)c2)n1 | 11.5 | 12.6 | – | – | –
6 | Cc1cnccc1Nc1ncc(Cl)c(-c2csc(C(=O)NCc3ccc(F)c(Cl)c3)c2)n1 | 6.26 | 5.41 | – | – | –
7 | Cn1nccc1Nc1ncc(Cl)c(-c2csc(C(=O)NCc3ccccc3F)c2)n1 | > 50 | > 50 | – | – | –
8 | Cn1nccc1Nc1ncc(Cl)c(-c2csc(C(=O)NCc3cccc(C(F)(F)F)c3)c2)n1 | 21.1 | 24.5 | – | – | –
9 | Cn1nccc1Nc1ncc(Cl)c(-c2csc(C(=O)NCc3ccc(F)cc3F)c2)n1 | > 50 | > 50 | – | – | –
10 | Cn1nccc1Nc1ncc(Cl)c(-c2csc(C(=O)NC3CCOCC3)c2)n1 | – | – | 0.0254 | – | –
11 | COc1ccccc1CNC(=O)c1cc(-c2nc(Nc3ccnn3C)ncc2Cl)cs1 | > 50 | > 50 | – | – | –
12 | Cn1nccc1Nc1ncc(Cl)c(-c2csc(C(=O)NCc3cccc(Br)c3)c2)n1 | > 50 | > 50 | – | – | –
13 | Cn1nccc1Nc1ncc(Cl)c(-c2csc(C(=O)NCc3ccc(F)cc3)c2)n1 | 15.8 | 14.5 | – | – | –
14 | Cn1cc(Nc2ncc(Cl)c(-c3csc(C(=O)NCc4ccc(F)c(Cl)c4)c3)n2)c(C(F)(F)F)n1 | > 50 | > 50 | – | – | –
15 | Cn1nccc1Nc1ncc(Cl)c(-c2csc(C(=O)NCc3ccc(Cl)cc3F)c2)n1 | 48.2 | 39 | – | – | –
16 | Cn1nccc1Nc1ncc(Cl)c(-c2csc(C(=O)NCc3ccccc3Br)c2)n1 | > 50 | > 50 | – | – | –
17 | Cn1ccc(Nc2ncc(Cl)c(-c3csc(C(=O)NCc4ccc(F)c(Cl)c4)c3)n2)n1 | > 50 | 49.4 | – | – | –
18 | Cn1nccc1Nc1ncc(Cl)c(-c2csc(C(=O)NCCN3CCOCC3)c2)n1 | 39.4 | 50.6 | – | – | –
19 | CC(C)Nc1cc(-c2c[nH]c(C(=O)N[C@H](CO)c3cccc(Cl)c3)c2)c(Cl)cn1 [ULIXERTINIB] | – | – | – | 47.4 | 39.3
